Data on three molecules can be found in US20160151403A1, “SMALL MOLECULE MODULATORS OF P53 FAMILY SIGNALING” (The Trustees of the University of Pennsylvania, priority 2006, published 2016).

What all share (assay type): cell-based, human
Assay [1] has as its system HCT116/p53(−/−)/PG13 cells. The assay can be described thus: p53 transcriptional activity, PG13 reporter, HCT116/p53(-/-)/PG13 cells. Conditions: p53-null HCT116, 16 h, bioluminescence. The procedure: Cells were treated by the indicated compounds at progressive 1:2 serial dilutions for 16 h, and the luciferase activities were detected by bioluminescence imaging. Fold induction was calculated by comparing to the nontreated cells;

The subject of assay [2] is p53 protein expression in HCT116 cells. The assay can be described thus: Western blot of p53 protein in parental HCT116 cells. To be noted: FIG. 2A. The procedure: (§1) Cells were collected and protein concentration was quantified by the Bio-Rad protein assay prior to SDS-PAGE. Proteins were transferred to a PVDF membrane (Immobilon-P, Millipore Corporation, Bedford, Mass.) by a semi-dry transfer apparatus (Bio-Rad Laboratories, Hercules, Calif.). The membranes with transferred proteins were blotted with 10% W/V non-fat dry milk and then incubated with the primary antibody and subsequently secondary antibodies, which were labelled by horseradish peroxidase, or infrared dyes (IR). Signals were visualized by either ECL (Amersham Pharmacia Biotech, England, UK) and exposed to an X-ray film, or scanned by the Odyssey Infared Imaging System (LI-COR Biosciences, Lincoln, Nebr.). Anti-p53, DO-1, was from Santa Cruz biotechnology, Inc. (Santa Cruz, Calif.), anti-p73 (AB-1) and anti-p21 (AB-1) were obtained from Calbiochem (San Diego, Calif.). Anti-ser20 of p53 Cell were obtained from Signaling Technology (Danvers, Mass.) and anti-DR5 antibody was obtained from Cayman Chemical (Ann Arbor, Mich.).
The chemical library screening was directed at restoring “p53 responses” in p53-deficient cells. The small molecules identified by the cell-based screening procedure appeared to be able to restore p53 responses in p53-deficient colon tumors and to eliminate viable cells. Their function was further tested on wild-type p53-expressing and p53-knockout HCT116 colon adenocarcinoma cell lines. A number of candidate modulators of signaling by the p53 family appeared to induce expression of p53 target genes such as p21 or DR5(13) either with or without stabilizing p53 protein in HCT116 cells (FIG. 2A).

Assay [3] deals with DR5 and p21 in HCT116/p53(−/−) cells. The assay can be described thus: Western blot of p53 target genes DR5 and p21 in HCT116/p53(-/-) cells. Conditions: p53-null HCT116 cells, 16 hours, doses per compound in FIG. 2B. The method, then: FIGS. 2A-2B show protein levels of p53 target genes p21 and DR5 were induced by selected compounds in HCT/p53(+/+) cells (A) or HCT/p53(−/−) cells (B). In A, doses of compounds (μM) are listed above each lane. Cells treated with compounds were harvested and lysed for SDS-PAGE and immunoblotted with p21 or DR5 antibodies. Ran was used as a protein loading control. Doses of compounds in B were as follows: 2 μM for #15, 12 μM for #1 and #23, 20 μM for #20 and #32, 100 μM for #33, 200 μM for #5, #8, #12, #16, #17, and #22, and 400 μM for #3. The dose for adriamycin was 0.2 μg/ml. Cells were incubated for 16 hours at 37° C. with the various drugs prior to cell harvest;
as §1
A number of selected compounds was further tested on HCT116/p53^−/− cells to verify the possibility of induction of p53 target gene expression in the absence of p53. […] The importance of this observation is in establishing that it is possible to identify small molecules with the potential to induce p53 target gene expression in p53-deficient cells.

Assay [4] relates to p73 in HCT116/p53^−/− cells. The assay can be described thus: Effect of p73 knockdown (si-p73 retrovirus) on compound-induced p53-responsive transcriptional activity. To be noted: retrovirus mediated si-p73, HCT116/p53^−/− cells, FIG. 5D. The procedure: FIGS. 5A-5D show p53 transcriptional activity is induced in DLD1 xenografts and effects of knockdown of p73 by siRNA on drug-induced transcriptional activity. DLD1/PG13 cells were inoculated subcutaneously with 5 million cells. At 24 hours later mice were treated with selected compounds (100 mg/kg for #1, 50 mg/kg for #14 and #17, and 10 mg/kg for #23), and subsequently bioluminescence imaging was carried out after 16 hours. Two weeks later, tumor masses were weighed. A, bioluminescence imaging of p53 transcriptional activity induced in vivo. B, calculated fold-induction of p53 transcriptional activity. C, inhibition of tumor growth by selected compounds. D, effects of si-TAp73 on the transcriptional activity induced by selected compounds;
pBS/U6 vector containing TAp73 RNAi were kindly provided by Leif W. Ellisen (20), Harvard Medical School, from which the expression cassette was removed and recombined to pSIREN-RetroQ (Clontech Laboratories, Inc. Mountain View, Calif.), which was reconstructed to express a blasticidin-resistant marker.
(§2) The questioned whether the p53 family member p73 is involved in the p53-responsive transcriptional activity induced by the compounds identified was then tested. p63, the other p53 family member, was not tested, because the TA form of p63 is rarely expressed in malignant and normal tissues except for germ cells of the ovary and testis.

The subject of assay [5] is p53 phosphorylation at ser20 and acetylation at lys382. The assay can be described thus: Western blot of p53 phosphorylation and acetylation (DNA damage signaling). Conditions: 16 h; for p53 acetylation at lys382: HCT116/p53(+/+) cells; for p53 phosphorylation at ser20: HCT116/p53(+/+)/PG13 and SW480 cells. The method, then: FIGS. 7A-7C show: p53 levels and posttranslational modifications after treatment by selected compounds. (A) HCT116/p53(+/+) cells were treated with adriamycin, compounds nos. 1, 14, 17, and 23 for 16 h, and p53 and acetylated p53 levels were detected by Western blot. Nonspecific bands (Lower) serve as a loading control. (B) HCT116/p53(+/+)/PG13 cells were treated with adriamycin or compounds as indicated for 16 h and p53, phosphorylated p53 (ser20) levels and firefly luciferase protein expression were detected by Western blot. (C) SW480 cells were treated with compounds as indicated for 16 h, and p53 and phosphorylated p53 (ser20) levels were detected by Western blot. CP, CP-31398;
as §1
In order to determine whether DNA damage signaling is involved in the mechanism of action of selected compounds, Western blot was used to test the status of phosphorylation and acetylation of p53, which are sensitive indicators of DNA damage.

In assay [6] the test system is p73 in HCT116/p53(−/−) cells. Description: Western blot of p73 protein in HCT116/p53(-/-) cells. To be noted: FIG. 3F. The method, then: FIGS. 3A-3F show: Structures (A) of isolated compounds and summary of their effects on the p53 family and transcriptional targets (B). Cell cycle profiles of HCT/p53(+/+) and HCT/p53(−/−) in response to treatment by selected compounds (C-E). The dose of #17 was 200 μM and for #23 it was 10 μM. F, p73 protein levels were elevated in HCT116/p53(−/−) cells in response to treatment by selected compounds at various concentrations as indicated;
as §1, §2

Entries after “also recorded” stand apart in the source; their conditions may differ.

On to `CO[C@H]1[C@@H](O)[C@@H](C)O[C@H](O[C@H]2[C@H](Oc3cccc4c(O)c5c(=O)oc6ccc(C)c7c(=O)oc(c34)c5c67)O[C@H](C)[C@H](O)[C@@H]2O)[C@@H]1O` [#1], for which the “p53 transcriptional activity (reporter assay response)” value (“p53 transcriptional activity” for short) in assay [1] is “stronger responses in the reporter assays”. Besides, the p53 protein expression result in assay [2] is reported as “increase p53 expression; also recorded: significantly increased p53 protein levels”. Also, the “DR5 and p21 expression (p53 target genes)” value (“DR5 and p21 expression” for short) in assay [3] was “increasing expression of the p53 target genes DR5 and p21; also recorded: strongly induce p53 target gene expression”. Also, the “compound-induced p53-responsive transcriptional activity after knockdown of p73” value in assay [4] is given as “suppressed”.
Take `COc1cccc2c1C(=O)c1c(O)c3c(c(O)c1C2=O)CC(O)(/C(C)=N/O)CC3OC1CC(N)C(O)C(C)O1` (stereo not drawn) [#14]: in assay [1], the “p53 transcriptional activity” value is given as “stronger responses in the reporter assays”. For the same molecule, the p53 protein expression result in assay [2] was “increase p53 expression; also recorded: significantly increased p53 protein levels”. Moreover, in assay [5], the “p53 acetylation at lys382” value is “strong inducers” and the “p53 phosphorylation at ser20” value is “strong inducers of p53 phosphorylation at ser20”. In addition, the p73 protein expression entry in assay [6] is reported as “strong inducers of p73”. In addition, in assay [3], the “DR5 and p21 expression” value was “increasing expression of the p53 target genes DR5 and p21; also recorded: strongly induce p53 target gene expression”. Besides, the “compound-induced p53-responsive transcriptional activity after knockdown of p73” value in assay [4] was “suppressed”.
As to `COc1cccc2c1C(=N)c1c(O)c3c(c(O)c1C2=O)C[C@@](O)(C(C)=O)C[C@@H]3O[C@H]1C[C@H](N)[C@H](O)[C@H](C)O1` [#23], the “p53 transcriptional activity” value in assay [1] is given as “stronger responses in the reporter assays”. In addition, the p53 protein expression entry in assay [2] is on record as “increase p53 expression; also recorded: significantly increased p53 protein levels”. Besides, in assay [5], the “p53 acetylation at lys382” value was “strong inducers” and the “p53 phosphorylation at ser20” value is “strong inducers of p53 phosphorylation at ser20”. In assay [6], the p73 protein expression entry is “strong inducers of p73”. Further, in assay [3], the “DR5 and p21 expression” value was “increasing expression of the p53 target genes DR5 and p21; also recorded: strongly induce p53 target gene expression”. The “compound-induced p53-responsive transcriptional activity after knockdown of p73” value in assay [4] is reported as “suppressed”.
